The record followed here is ChEMBL document CHEMBL1201862, “PubChem BioAssay data set” (2004).

Among the test systems are CAKI-1; HOP-62; HOP-92; Hs-578T; IGROV-1; M14; MDA-MB-231; NCI-H226; NCI-H23; OVCAR-4; OVCAR-5; RPMI-8226; SF-295; SF-539; SK-MEL-2; SK-MEL-5; SW-620; UACC-62; UO-31; NCI-H522.
Common to all, as to test: growth of human tumour cells (NCI), 48 h

Molecules are shown by their SMILES.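 1) Cells in 96-well plates. 2) Compound, 48 h, 5 concentrations. 3) Linear interpolation between surrounding doses. 4) Unreached endpoint = highest concentration. Abbreviation: GI50, concentration required for 50% inhibition of growth.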 Active and inactive are the calls of the source. Cut-off read from the data, not from the text of the source: active = GI50 up to about 1.1 µM and inactive = higher.

Take `CC[C@H](C)[C@H](NC(=O)N(CCC#N)CCN(CCN(C(=O)N[C@@H](Cc1ccccc1)C(=O)OC)c1ccccc1)C(=O)N[C@H](C(=O)OC)C(C)C)C(=O)OC`: the GI50 with CAKI-1 was 19.8 µM (inactive); in the assay with HOP-62 it was 20.5 µM (inactive); in the assay on HOP-92, 6.24 µM (inactive); in the assay with Hs-578T it was 23.7 µM (inactive); in the assay on IGROV-1, 19.1 µM (inactive); with M14 it was 20.5 µM (inactive). The GI50 was 18 µM (inactive) in the assay with MDA-MB-231; 21.5 µM (inactive) in the assay with NCI-H226; 19.9 µM (inactive) in the assay on NCI-H23; 22.4 µM (inactive) in the assay with OVCAR-4; 25 µM (inactive) with OVCAR-5; 10.7 µM (inactive) with RPMI-8226. In addition, the GI50 in the assay on SF-295 was 18.1 µM (inactive); in the assay with SF-539, 23.6 µM (inactive); in the assay on SK-MEL-2, 20 µM (inactive); with SK-MEL-5, 20.5 µM (inactive); in the assay on SW-620, 21.4 µM (inactive); in the assay with UACC-62, 11.5 µM (inactive). Further, the GI50 in the assay on UO-31 is 18.1 µM (inactive).
Turning to `COc1cc(/C=C2\C(=O)N(c3cccc(Cl)c3)C(c3ccccc3)S2(=O)=O)cc(OC)c1OC` (stereo not given), the GI50 with CAKI-1 is > 100 µM (inactive); with HOP-62, 85.7 µM (inactive); with HOP-92, 30.6 µM (inactive); in the assay on Hs-578T, > 100 µM (inactive); in the assay on M14, 31.3 µM (inactive); in the assay with MDA-MB-231, > 100 µM (inactive). The GI50 with NCI-H226 is 89.7 µM (inactive); in the assay on NCI-H23, 66.2 µM (inactive); with NCI-H522, 17.8 µM (inactive); with OVCAR-4, 85.5 µM (inactive); with OVCAR-5 it was > 100 µM (inactive); with RPMI-8226, 23.2 µM (inactive). Besides, the GI50 is 36.4 µM (inactive) in the assay on SF-295; 43.3 µM (inactive) in the assay on SF-539; > 100 µM (inactive) in the assay on SK-MEL-2; 39.2 µM (inactive) with SK-MEL-5; 59.7 µM (inactive) in the assay with SW-620; 32.7 µM (inactive) in the assay with UACC-62. Further, the GI50 with UO-31 was 32.3 µM (inactive).
For the compound `O=c1cc(N2CCCC2)[nH]c(=O)n1-c1ccc(F)cc1`, the GI50 in the assay on CAKI-1, in the assay on HOP-62, in the assay with HOP-92, in the assay on Hs-578T, in the assay with IGROV-1 and with M14 was > 100 µM (inactive) throughout. In addition, the GI50 in the assay on MDA-MB-231 is > 100 µM (inactive); with NCI-H226, 20.3 µM (inactive); in the assay with NCI-H23, > 100 µM (inactive); with NCI-H522, > 100 µM (inactive); in the assay on OVCAR-4, > 100 µM (inactive); in the assay on OVCAR-5, > 100 µM (inactive). The GI50 in the assay on RPMI-8226, in the assay on SF-295, in the assay with SF-539, in the assay with SK-MEL-2, with SW-620 and in the assay on UACC-62 was > 100 µM (inactive) in each case.
Turning to `COc1cc2c(cc1OC)C(=O)N(c1ccc(O)cc1)C2`, the GI50 in the assay on CAKI-1, in the assay with HOP-62, in the assay with HOP-92, in the assay with Hs-578T, with IGROV-1 and in the assay with M14 was > 100 µM (inactive) each time. In addition, the GI50 in the assay with MDA-MB-231, in the assay on NCI-H226, with NCI-H23, in the assay on NCI-H522, in the assay with OVCAR-4 and with OVCAR-5 was > 100 µM (inactive) in each case. In addition, the GI50 with RPMI-8226, with SF-295, in the assay on SF-539, with SK-MEL-2, in the assay with SK-MEL-5 and in the assay on SW-620 was > 100 µM (inactive) throughout. In the assay on UACC-62, the GI50 was > 100 µM (inactive).
With `CCOC(=O)c1c[nH]c(C(=O)OCC)c1-c1cccn1-c1ccccc1`, the GI50 in the assay on CAKI-1 is 20.9 µM (inactive); in the assay on HOP-62, 18.2 µM (inactive); in the assay with HOP-92 it was 23.3 µM (inactive); with Hs-578T it was 9.64 µM (inactive); in the assay on IGROV-1, 10.7 µM (inactive); with M14 it was 20.2 µM (inactive). Moreover, the GI50 was 28.6 µM (inactive) with MDA-MB-231; 15.1 µM (inactive) in the assay with NCI-H226; 28.5 µM (inactive) in the assay with NCI-H23; 13 µM (inactive) in the assay on NCI-H522; > 100 µM (inactive) in the assay on OVCAR-5; 14.2 µM (inactive) in the assay with RPMI-8226. Besides, the GI50 with SF-295 is 19.3 µM (inactive); in the assay with SK-MEL-2 it was 14.5 µM (inactive); in the assay on SK-MEL-5, 14.1 µM (inactive); with SW-620, 35.2 µM (inactive); in the assay on UACC-62, 17.4 µM (inactive); in the assay on UO-31, 18.4 µM (inactive).
Regarding `Oc1ccc2ccccc2c1/N=N\c1cccc2ccccc12`, the GI50 with CAKI-1 is > 100 µM (inactive); in the assay with HOP-62, > 100 µM (inactive); with HOP-92 it was > 100 µM (inactive); in the assay on Hs-578T it was > 100 µM (inactive); with IGROV-1, 29.9 µM (inactive); in the assay with M14 it was 95.9 µM (inactive). For the same compound, the GI50 is > 100 µM (inactive) with MDA-MB-231; > 100 µM (inactive) in the assay on NCI-H226; > 100 µM (inactive) in the assay with NCI-H23; 82.6 µM (inactive) in the assay on NCI-H522; > 100 µM (inactive) in the assay on OVCAR-4; > 100 µM (inactive) in the assay on OVCAR-5. Further, the GI50 in the assay with RPMI-8226, in the assay with SF-295, in the assay with SK-MEL-2, with SK-MEL-5, in the assay on SW-620 and with UACC-62 was > 100 µM (inactive) in each case. For the same compound, the GI50 with UO-31 was > 100 µM (inactive).
With `COc1cc(/C=C/C2=NN(c3cccc(S(=O)(=O)O)c3)C3(C2)C(Cl)C(=O)N3c2nc3ccccc3s2)ccc1O` (stereo not given), the GI50 in the assay on CAKI-1 is 17 µM (inactive); with HOP-92 it was 13.2 µM (inactive); with Hs-578T, 50 µM (inactive); with IGROV-1, 13.7 µM (inactive); with M14, 40.7 µM (inactive); in the assay with MDA-MB-231, 20.8 µM (inactive). The GI50 in the assay on NCI-H226 is 20.7 µM (inactive); in the assay on NCI-H23, 13 µM (inactive); in the assay with NCI-H522, 13.9 µM (inactive); in the assay with OVCAR-4 it was 16.1 µM (inactive); with OVCAR-5, 20.2 µM (inactive); in the assay with RPMI-8226 it was 16.1 µM (inactive). The GI50 was 21.4 µM (inactive) with SF-539; 39.7 µM (inactive) in the assay on SK-MEL-2; 23.6 µM (inactive) in the assay on SK-MEL-5; 21.1 µM (inactive) in the assay with SW-620; 18.5 µM (inactive) in the assay on UACC-62; 16.9 µM (inactive) in the assay on UO-31.
Consider `CCCCCCCCCCCCCCCCOC[C@@H](COC(c1ccccc1)(c1ccccc1)c1ccccc1)O[PH](=S)OC` (stereo not given in full), for which the GI50 in the assay with CAKI-1 is 11.6 µM (inactive); in the assay on HOP-92 it was 12.4 µM (inactive); in the assay with Hs-578T, 15.5 µM (inactive); with IGROV-1 it was 13.7 µM (inactive); with M14, 3.3 µM (inactive); in the assay on MDA-MB-231 it was 2.28 µM (inactive). The GI50 is 19.1 µM (inactive) with NCI-H226; 10.9 µM (inactive) in the assay on NCI-H23; 10.2 µM (inactive) in the assay with NCI-H522; 9.35 µM (inactive) in the assay with OVCAR-4; 10.8 µM (inactive) with OVCAR-5; 3.4 µM (inactive) in the assay with RPMI-8226. Besides, the GI50 in the assay with SF-295 was 1.41 µM (inactive); in the assay with SF-539 it was 2.82 µM (inactive); in the assay with SK-MEL-2, 11.1 µM (inactive); in the assay with SK-MEL-5, 4.81 µM (inactive); with SW-620 it was 16.1 µM (inactive); in the assay on UACC-62, 3.81 µM (inactive). Also, in the assay on UO-31, the GI50 is 16.4 µM (inactive).
Turning to `COc1ccc2c(c1)CCc1cc(C(N)=O)c3nnnn3c1-2`, the GI50 is 36.7 µM (inactive) in the assay on CAKI-1; 25.5 µM (inactive) in the assay on HOP-62; 30.9 µM (inactive) with HOP-92; 0.408 µM (active) in the assay with Hs-578T; 39.3 µM (inactive) in the assay with IGROV-1; > 100 µM (inactive) with M14. For the same compound, the GI50 in the assay on MDA-MB-231 was > 49.2 µM (inactive); in the assay on NCI-H226 it was > 100 µM (inactive); in the assay on NCI-H23 it was 60.1 µM (inactive); in the assay with NCI-H522, 27.9 µM (inactive); in the assay with OVCAR-4, > 81.3 µM (inactive); in the assay with OVCAR-5, > 100 µM (inactive). Also, the GI50 in the assay on RPMI-8226 was > 100 µM (inactive); in the assay on SF-295 it was 44.1 µM (inactive); in the assay on SF-539, 78.7 µM (inactive); with SK-MEL-2, > 42.1 µM (inactive); in the assay with SK-MEL-5, > 100 µM (inactive); with SW-620, > 100 µM (inactive). For the same compound, the GI50 in the assay on UACC-62 is 1.67 µM (inactive).
Turning to `CCOC(=O)CC1(N)CC2c3ccccc3OC(=O)C2C(=O)N1` (stereo not given), the GI50 in the assay with CAKI-1, in the assay with HOP-62, in the assay with HOP-92, in the assay on Hs-578T, in the assay with IGROV-1 and with M14 was > 100 µM (inactive) each time. The GI50 in the assay on MDA-MB-231, in the assay on NCI-H226, with NCI-H23, with NCI-H522, in the assay on OVCAR-4 and in the assay on OVCAR-5 was > 100 µM (inactive) throughout. Also, the GI50 with RPMI-8226, in the assay with SK-MEL-2, with SW-620, in the assay with UACC-62 and with UO-31 was > 100 µM (inactive) each time.
